Experimental data from patent publication US20240209028A1, “CNP COMPOUNDS” (priority 2022, published 2024).
≈ marks a conversion by molar mass, not a printed value. Like-named read-outs stand apart in the source and are kept apart here. Starred links: 1 amine or outer side, 2 acyl side, 3 side chain; linkers in the order of their positions; H or OH if unused. Positions of bridges follow the written chain, without caps; N, C: chain ends. Residues, ends and D or L forms follow the SMILES beside them. *: point of attachment. C18 diacid = O=C(O)CCCCCCCCCCCCCCCCC(=O)*; γGlu = O=C(O)[C@H](CCC(=O)[*:2])N[*:1]; AEEA = NCCOCCOCC(=O)O

How the values were obtained:
[1] = CNP local tolerance study in LYD pigs (s.c. injection, histopathology); assay type: in vivo, domestic LYD pig; details: LYD pig, s.c., approx. 4400 μM, 4 or 5 days after injection
From the text: The purpose of this study was to evaluate the local tissue reaction response to subcutaneous injection of CNP compounds in pigs.
Procedure: In domestic pigs, the injection site was subjected to histopathologic examination after subcutaneous dosing. Injections were placed mid-back between the shoulder and hip on both sides of the dorsal midline, and one or two days before injection sites of 2×2 cm were shaved and marked by permanent ink under light anaesthesia. Each injection consisted of 100 or 200 μl formulation with a concentration of approx. 4400 μM. CNP compound formulations were prepared according to the principles in General Methods of Preparation—Method G, and were either A) 8 mM sodium phosphate, 250 mM glycerol, pH 6.5, B) 5 mM sodium acetate, 250 mM glycerol, pH 4.0 or C) 5 mM sodium acetate, 240 mM propylene glycol, pH 4.0 and physiological saline was included as negative control.
On Day 1 the pigs were lightly anaesthetised. An insulin pen (NovoPen 4) and insulin needle (NovoTwist 32G/5 mm) were used for accurate deposition of the CNP formulations in the subcutaneous fat tissue with the needle perpendicular to the skin. On Day 5 (4 days post injection) or 6 (5 days post injection), the pigs were euthanised, and the injection sites were removed and fixed in 4% phosphate buffered neutral formaldehyde in sealed plastic containers. The tissue blocks were prefixed for 2-4 hours in 10% buffered formalin, cut into 2 mm thick slabs with a multi knife, examined for macroscopic changes and finally fixed overnight in cassettes. Two slabs of tissue were selected for light microscopic evaluation where the tissue reaction was maximal or alternatively in the central part of the injection site. Three to four 2-4 μm sections were cut from three levels at 100 μm distance, stained with haematoxylin and eosin (H&E) and evaluated in a light microscope. Histopathological changes were graded on a 5-level scale ((Minimal (Min), Mild (Mil), Moderate (Mod), Marked (Mar) and Severe (Sev)). The studies are summarised in Table 18.
Results: The results are summarised in Table 19. * Necrosis was used as a marker for local subcutaneous reactions; **NAD: No Abnormalities Detected

[2] = Solubility of CNP compounds at pH 4.0 and pH 6.5; assay type: physicochemical
In short: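 Freeze-dried peptide was brought to a nominal ≥4000-5000 nmol/mL in 5 mM sodium acetate, 250 mM glycerol (pH 4.0) or in 8 mM sodium phosphate, 23 mg/mL glycerol (pH 6.5 via NaOH titration). Samples were equilibrated at room temperature overnight if undissolved, and supernatant concentration was measured by CAD.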

| SMILES | Number of injections by severity of necrosis: Min. [1] | Number of injections by severity of necrosis: NAD [1] | also measured |
| --- | --- | --- | --- |
| CC[C@H](C)[C@@H]1NC(=O)[C@H](CCCNC(=N)N)NC(=O)[C@H](CC(=O)O)NC(=O)[C@H](CC(C)C)NC(=O)[C@@H]2CCCN2C(=O)[C@H](CC(C)C)NC(=O)CNC(=O)[C@H](Cc2ccccc2)NC(=O)[C@@H](NC(=O)CNC(=O)[C@H](CCC(N)=O)NC(=O)[C@H](CO)NC(=O)[C@H](CC(C)C)NC(=O)CNC(=O)[C@H](CCCCN)NC(=O)[C@H](CCCCN)NC(=O)[C@H](CCC(N)=O)NC(=O)[C@H](C)NC(=O)CNC(=O)[C@H](CCCCN)NC(=O)[C@H](Cc2ccc(O)cc2)NC(=O)[C@H](CCCCN)NC(=O)[C@H](CCCNC(=N)N)NC(=O)[C@H](C)NC(=O)COCCOCCNC(=O)COCCOCCNC(=O)COCCOCCNC(=O)COCCOCCNC(=O)CC[C@H](NC(=O)CC[C@H](NC(=O)CC[C@H](NC(=O)CC[C@H](NC(=O)CC[C@H](NC(=O)CCCCCCCCCCCCCCCCC(=O)O)C(=O)O)C(=O)O)C(=O)O)C(=O)O)C(=O)O)CSSC[C@@H](C(=O)O)NC(=O)CNC(=O)[C@H](CC(C)C)NC(=O)CNC(=O)[C@H](CO)NC(=O)[C@H](CC(C)C)NC(=O)[C@H](CO)NC(=O)CNC1=O [Compound 9407] ({C18 diacid-γGlu-γGlu-γGlu-γGlu-γGlu-AEEA-AEEA-AEEA-AEEA}-ARKYKGAQKKGLSQGCFGLPLDRIGSLSGLGC-OH; disulfide 16-32) | 1 | 3 |  |
| CC[C@H](C)[C@@H]1NC(=O)[C@H](CCCNC(=N)N)NC(=O)[C@H](CC(=O)O)NC(=O)[C@H](CC(C)C)NC(=O)[C@@H]2CCCN2C(=O)[C@H](CC(C)C)NC(=O)CNC(=O)[C@H](Cc2ccccc2)NC(=O)[C@@H](NC(=O)CNC(=O)[C@H](CCC(N)=O)NC(=O)[C@H](CO)NC(=O)CNC(=O)CNC(=O)[C@H](CCCCN)NC(=O)[C@H](CCCCN)NC(=O)[C@H](CCC(N)=O)NC(=O)[C@H](C)NC(=O)CNC(=O)[C@H](CCCCN)NC(=O)[C@H](Cc2ccc(O)cc2)NC(=O)COCCOCCNC(=O)COCCOCCNC(=O)COCCOCCNC(=O)COCCOCCNC(=O)CC[C@H](NC(=O)CC[C@H](NC(=O)CCCCCCCCCCCCCCCCC(=O)O)C(=O)O)C(=O)O)CSSC[C@@H](C(=O)O)NC(=O)CNC(=O)[C@H](CC(C)C)NC(=O)CNC(=O)[C@H](CO)NC(=O)[C@H](CC(C)C)NC(=O)[C@H](CO)NC(=O)CNC1=O [Compound 9435] ({C18 diacid-γGlu-γGlu-AEEA-AEEA-AEEA-AEEA}-YKGAQKKGGSQGCFGLPLDRIGSLSGLGC-OH; disulfide 13-29) | 3 |  | Number of injections by severity of necrosis: Mild [1]: 1 |
| CC[C@H](C)[C@@H]1NC(=O)[C@H](CCCNC(=N)N)NC(=O)[C@H](CC(=O)O)NC(=O)[C@H](CC(C)C)NC(=O)[C@@H]2CCCN2C(=O)[C@H](CC(C)C)NC(=O)CNC(=O)[C@H](Cc2ccccc2)NC(=O)[C@@H](NC(=O)CNC(=O)[C@H](CCC(N)=O)NC(=O)[C@H](CO)NC(=O)[C@H](CC(C)C)NC(=O)CNC(=O)[C@H](CCCCN)NC(=O)[C@H](CCCCN)NC(=O)[C@H](CCC(N)=O)NC(=O)[C@H](C)NC(=O)CNC(=O)[C@H](CCCCN)NC(=O)[C@H](Cc2ccc(O)cc2)NC(=O)COCCOCCNC(=O)COCCOCCNC(=O)COCCOCCNC(=O)COCCOCCNC(=O)CC[C@H](NC(=O)CC[C@H](NC(=O)CC[C@H](NC(=O)CCCCCCCCCCCCCCCCC(=O)O)C(=O)O)C(=O)O)C(=O)O)CSSC[C@@H](C(=O)O)NC(=O)CNC(=O)[C@H](CC(C)C)NC(=O)CNC(=O)[C@H](CO)NC(=O)[C@H](CC(C)C)NC(=O)[C@H](CO)NC(=O)CNC1=O [Compound 9480] ({C18 diacid-γGlu-γGlu-γGlu-AEEA-AEEA-AEEA-AEEA}-YKGAQKKGLSQGCFGLPLDRIGSLSGLGC-OH; disulfide 13-29) |  | 4 |  |
| CC[C@H](C)[C@@H]1NC(=O)[C@H](CCCNC(=N)N)NC(=O)[C@H](CC(=O)O)NC(=O)[C@H](CC(C)C)NC(=O)[C@@H]2CCCN2C(=O)[C@H](CC(C)C)NC(=O)CNC(=O)[C@H](Cc2ccccc2)NC(=O)[C@@H](NC(=O)CNC(=O)[C@H](CO)NC(=O)[C@H](CO)NC(=O)[C@H](CC(C)C)NC(=O)CNC(=O)[C@H](CCCCN)NC(=O)[C@H](CCCCN)NC(=O)[C@H](CCC(N)=O)NC(=O)[C@H](C)NC(=O)CNC(=O)[C@H](CCCCN)NC(=O)[C@H](Cc2ccc(O)cc2)NC(=O)[C@H](CCCCN)NC(=O)[C@H](CCCNC(=N)N)NC(=O)[C@H](C)NC(=O)[C@H](CCC(N)=O)NC(=O)[C@@H]2CCCN2C(=O)[C@H](Cc2c[nH]cn2)NC(=O)[C@H](CCC(=O)O)NC(=O)[C@H](CCC(N)=O)NC(=O)CC[C@H](NC(=O)CC[C@H](NC(=O)CC[C@H](NC(=O)CC[C@H](NC(=O)CC[C@H](NC(=O)CCCCCCCCCCCCCCCCC(=O)O)C(=O)O)C(=O)O)C(=O)O)C(=O)O)C(=O)O)CSSC[C@@H](C(=O)O)NC(=O)CNC(=O)[C@H](CC(C)C)NC(=O)CNC(=O)[C@H](CO)NC(=O)[C@H](CC(C)C)NC(=O)[C@H](CO)NC(=O)CNC1=O [Compound 9482] ({C18 diacid-γGlu-γGlu-γGlu-γGlu-γGlu}-QEHPQARKYKGAQKKGLSSGCFGLPLDRIGSLSGLGC-OH; disulfide 21-37) |  | 4 |  |
| CC[C@H](C)[C@@H]1NC(=O)[C@H](CCCNC(=N)N)NC(=O)[C@H](CC(=O)O)NC(=O)[C@H](CC(C)C)NC(=O)[C@@H]2CCCN2C(=O)[C@H](CC(C)C)NC(=O)CNC(=O)[C@H](Cc2ccccc2)NC(=O)[C@@H](NC(=O)CNC(=O)[C@H](CCC(N)=O)NC(=O)[C@H](CO)NC(=O)[C@H](CC(C)C)NC(=O)CNC(=O)[C@H](CCCCN)NC(=O)[C@H](CCCCN)NC(=O)[C@H](CCC(N)=O)NC(=O)[C@H](C)NC(=O)CNC(=O)[C@@H]2CCCN2C(=O)[C@H](C)NC(=O)[C@H](CCC(N)=O)NC(=O)CNC(=O)COCCOCCNC(=O)COCCOCCNC(=O)CC[C@H](NC(=O)CCCCCCCCCCCCCCCCC(=O)O)C(=O)O)CSSC[C@@H](C(=O)O)NC(=O)CNC(=O)[C@H](CC(C)C)NC(=O)CNC(=O)[C@H](CO)NC(=O)[C@H](CC(C)C)NC(=O)[C@H](CO)NC(=O)CNC1=O [compound 1484] ({C18 diacid-γGlu-AEEA-AEEA}-GQAPGAQKKGLSQGCFGLPLDRIGSLSGLGC-OH; disulfide 15-31; C-terminus assumed) |  |  | solubility ([2]; 8 mM sodium phosphate, 23 mg/mL glycerol, pH 6.5, room temperature, read-out: Solubility at pH 6.5): 2.33 mM (≈ 8.7 mg/mL) |
| CC[C@H](C)[C@@H]1NC(=O)[C@H](CCCNC(=N)N)NC(=O)[C@H](CCC(=O)O)NC(=O)[C@H](CC(C)C)NC(=O)[C@@H]2CCCN2C(=O)[C@H](CC(C)C)NC(=O)CNC(=O)[C@H](Cc2ccccc2)NC(=O)[C@@H](NC(=O)CNC(=O)[C@H](CCC(N)=O)NC(=O)[C@H](CO)NC(=O)CNC(=O)CNC(=O)[C@H](CCCCN)NC(=O)[C@H](CCCCN)NC(=O)[C@H](CCC(N)=O)NC(=O)[C@H](C)NC(=O)CNC(=O)[C@H](CCCCN)NC(=O)[C@H](Cc2ccc(O)cc2)NC(=O)COCCOCCNC(=O)COCCOCCNC(=O)COCCOCCNC(=O)COCCOCCNC(=O)CC[C@H](NC(=O)CC[C@H](NC(=O)CCCCCCCCCCCCCCCCC(=O)O)C(=O)O)C(=O)O)CSSC[C@@H](C(=O)O)NC(=O)CNC(=O)[C@H](CC(C)C)NC(=O)CNC(=O)[C@H](CO)NC(=O)[C@H](CC(C)C)NC(=O)[C@H](CO)NC(=O)CNC1=O [compound 1489] ({C18 diacid-γGlu-γGlu-AEEA-AEEA-AEEA-AEEA}-YKGAQKKGGSQGCFGLPLERIGSLSGLGC-OH; disulfide 13-29) |  |  | solubility ([2]; pH 4): 5.93 mM (≈ 24 mg/mL) |
